Among the data in patent US8022206B2 (OSI Pharmaceuticals, LLC, priority 2008, dated 2011) are IC50 values, retold here.

Like-named read-outs stand apart in the source and are kept apart here. A value given as a limit tells only on which side of the number the result lay.

One experiment deals with MET (human) (Homo sapiens, UniProt P08581). In words: MET (human) AlphaScreen kinase assay, Km of ATP. The format is biochemical. The procedure, abridged:
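Human MET at lot-optimised concentration in 50 mM Tris pH 7.4 buffer with 1 mM DTT, compound at 1% DMSO final; enzyme starts the reaction, 60 min at RT.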

A further experiment deals with RON (human) (Homo sapiens, UniProt Q04912). In words: RON (human) AlphaScreen kinase assay, Km of ATP. The format is biochemical. A digest of the protocol: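 Detection used PT66 AlphaScreen beads added in Tris pH 7.5/NaCl/EDTA/BSA buffer, read after 1 h incubation. Vehicle-only DMSO wells served as controls.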
Chain of RON (human) (Q04912 25-1400): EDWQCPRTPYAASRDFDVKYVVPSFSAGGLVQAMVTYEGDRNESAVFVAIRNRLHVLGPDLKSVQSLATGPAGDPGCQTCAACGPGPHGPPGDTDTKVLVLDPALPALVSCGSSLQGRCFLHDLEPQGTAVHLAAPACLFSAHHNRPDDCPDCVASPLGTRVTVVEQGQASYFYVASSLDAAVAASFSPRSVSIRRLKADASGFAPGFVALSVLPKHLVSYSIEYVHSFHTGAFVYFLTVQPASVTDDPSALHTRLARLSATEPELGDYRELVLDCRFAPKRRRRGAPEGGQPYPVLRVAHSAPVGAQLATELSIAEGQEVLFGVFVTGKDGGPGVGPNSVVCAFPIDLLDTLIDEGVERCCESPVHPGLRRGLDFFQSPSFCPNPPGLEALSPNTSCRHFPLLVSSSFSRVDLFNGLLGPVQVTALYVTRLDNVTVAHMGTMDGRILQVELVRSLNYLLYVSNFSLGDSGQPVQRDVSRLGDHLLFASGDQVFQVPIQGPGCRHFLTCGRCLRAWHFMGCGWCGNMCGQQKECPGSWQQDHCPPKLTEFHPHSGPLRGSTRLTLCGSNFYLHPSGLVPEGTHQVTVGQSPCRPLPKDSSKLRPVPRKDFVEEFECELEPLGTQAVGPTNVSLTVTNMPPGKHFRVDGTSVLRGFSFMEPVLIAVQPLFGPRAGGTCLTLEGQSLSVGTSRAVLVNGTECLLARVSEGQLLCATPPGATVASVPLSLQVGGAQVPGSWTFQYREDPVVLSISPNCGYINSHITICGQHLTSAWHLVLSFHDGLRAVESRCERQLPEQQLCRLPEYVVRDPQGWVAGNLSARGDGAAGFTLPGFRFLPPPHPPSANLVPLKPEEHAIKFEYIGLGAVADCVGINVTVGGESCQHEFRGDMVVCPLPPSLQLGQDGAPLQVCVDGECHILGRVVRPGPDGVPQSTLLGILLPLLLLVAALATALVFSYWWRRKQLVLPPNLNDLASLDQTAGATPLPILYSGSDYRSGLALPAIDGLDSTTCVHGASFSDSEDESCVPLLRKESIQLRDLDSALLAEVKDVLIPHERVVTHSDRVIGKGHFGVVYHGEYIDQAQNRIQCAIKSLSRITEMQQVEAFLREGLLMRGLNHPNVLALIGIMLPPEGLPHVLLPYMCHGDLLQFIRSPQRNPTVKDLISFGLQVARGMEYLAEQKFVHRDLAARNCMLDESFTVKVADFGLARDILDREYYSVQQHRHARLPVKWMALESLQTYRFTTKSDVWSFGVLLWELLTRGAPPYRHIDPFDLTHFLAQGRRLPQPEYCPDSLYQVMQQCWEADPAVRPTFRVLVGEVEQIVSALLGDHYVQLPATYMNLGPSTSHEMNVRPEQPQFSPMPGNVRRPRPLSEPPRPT
A general note: In Alpha technology, singlet oxygen from a donor bead excites a nearby acceptor bead.

Where [1] appears, read: AlphaScreen, Km of ATP, read-out: Met biochemical IC50.
[2] abbreviates: AlphaScreen, Km of ATP, read-out: RON biochemical IC50.

Chain of MET (human) (P08581 25-1390): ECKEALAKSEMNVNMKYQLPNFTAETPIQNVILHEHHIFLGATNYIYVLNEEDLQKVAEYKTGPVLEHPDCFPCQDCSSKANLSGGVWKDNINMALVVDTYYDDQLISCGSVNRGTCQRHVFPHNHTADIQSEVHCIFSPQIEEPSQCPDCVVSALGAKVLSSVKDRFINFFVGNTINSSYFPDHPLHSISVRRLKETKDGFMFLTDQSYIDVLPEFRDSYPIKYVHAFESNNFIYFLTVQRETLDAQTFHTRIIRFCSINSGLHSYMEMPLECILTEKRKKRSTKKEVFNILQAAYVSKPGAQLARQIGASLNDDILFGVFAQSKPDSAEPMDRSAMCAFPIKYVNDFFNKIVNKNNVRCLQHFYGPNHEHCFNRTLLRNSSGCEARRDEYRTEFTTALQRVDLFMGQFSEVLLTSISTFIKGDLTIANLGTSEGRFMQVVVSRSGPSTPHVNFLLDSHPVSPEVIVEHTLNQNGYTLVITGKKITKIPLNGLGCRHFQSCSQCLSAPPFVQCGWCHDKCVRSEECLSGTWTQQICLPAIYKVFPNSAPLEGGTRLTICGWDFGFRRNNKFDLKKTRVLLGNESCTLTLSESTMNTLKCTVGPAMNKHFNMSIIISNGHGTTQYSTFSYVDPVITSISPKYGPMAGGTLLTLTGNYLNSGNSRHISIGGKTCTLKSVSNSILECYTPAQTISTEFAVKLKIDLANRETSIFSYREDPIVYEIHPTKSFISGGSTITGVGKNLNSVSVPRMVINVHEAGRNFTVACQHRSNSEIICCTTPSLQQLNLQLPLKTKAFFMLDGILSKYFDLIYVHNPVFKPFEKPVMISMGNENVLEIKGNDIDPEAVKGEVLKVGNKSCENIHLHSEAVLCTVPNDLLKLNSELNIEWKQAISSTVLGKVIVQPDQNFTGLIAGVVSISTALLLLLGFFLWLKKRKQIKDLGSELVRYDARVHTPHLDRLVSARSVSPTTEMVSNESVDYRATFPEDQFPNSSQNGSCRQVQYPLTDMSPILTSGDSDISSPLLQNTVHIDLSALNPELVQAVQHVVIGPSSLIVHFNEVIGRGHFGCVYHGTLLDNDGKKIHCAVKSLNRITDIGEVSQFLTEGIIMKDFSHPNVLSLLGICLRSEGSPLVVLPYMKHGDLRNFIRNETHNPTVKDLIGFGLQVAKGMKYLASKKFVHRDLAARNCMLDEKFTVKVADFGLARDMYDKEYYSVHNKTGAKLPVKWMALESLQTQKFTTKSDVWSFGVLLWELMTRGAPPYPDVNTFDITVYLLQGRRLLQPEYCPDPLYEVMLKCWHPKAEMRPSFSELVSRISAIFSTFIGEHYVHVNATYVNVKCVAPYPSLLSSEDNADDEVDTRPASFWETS

Take `C[C@@H](Oc1c(N)ncc2c(C3=CCN(C(=O)[C@H](N)c4ccccc4)CC3)coc12)c1c(Cl)ccc(F)c1Cl` [Example 262, (2R)-2-Amino-1-[4-{6-amino-7-[(1R)-1-(2,6-dichloro-3-fluoro-phenyl)ethoxy]furo[3,2-c]pyridin-3-yl}-3,6-dihydropyridin-1(2H)-yl]-2-phenylethanone]: the 50% inhibitory concentration (IC50) on MET (human) (setting [1]) is less than 500 nM; on RON (human) (setting [2]), less than 0.5 µM.
For the compound `C[C@@H](Oc1c(N)ncc2c(C3=CCN(C(=O)[C@@H](N)Cc4cnc[nH]4)CC3)coc12)c1c(Cl)ccc(F)c1Cl` [Example 263, (2S)-2-Amino-1-[4-{6-amino-7-[(1R)-1-(2,6-dichloro-3-fluoro-phenyl)ethoxy]furo[3,2-c]pyridin-3-yl}-3,6-dihydropyridin-1(2H)-yl]-3-(1H-imidazol-5-yl)propan-1-one], the 50% inhibitory concentration (IC50) at MET (human) (setting [1]) was less than 500 nM; at RON (human) (setting [2]), less than 0.5 µM.
Turning to `C[C@@H](Oc1c(N)ncc2c(C3=CCN(C(=O)[C@H](N)Cc4cnc[nH]4)CC3)coc12)c1c(Cl)ccc(F)c1Cl` [Example 264, (2R)-2-Amino-1-[4-{6-amino-7-[(1R)-1-(2,6-dichloro-3-fluoro-phenyl)ethoxy]furo[3,2-c]pyridin-3-yl}-3,6-dihydropyridin-1(2H)-yl]-3-(1H-imidazol-5-yl)propan-1-one], the IC50 is less than 500 nM at MET (human) (setting [1]) and 5 to 20 µM at RON (human) (setting [2]).
In the case of `C[C@@H](Oc1c(N)ncc2c(C3=CCN(C(=O)[C@@H](O)c4ccccc4)CC3)coc12)c1c(Cl)ccc(F)c1Cl` [Example 265, (2S)-1-[4-{6-Amino-7-[(1R)-1-(2,6-dichloro-3-fluorophenyl)ethoxy]furo[3,2-c]pyridin-3-yl}-3,6-dihydropyridin-1(2H)-yl]-2-hydroxy-2-phenylethanone], the results for the IC50 on MET (human) (setting [1]) and at RON (human) (setting [2]) were 500 to 5000 nM and less than 0.5 µM, respectively.
For the compound `C[C@@H](Oc1c(N)ncc2c(C3=CCN(C(=O)[C@H](O)c4ccccc4)CC3)coc12)c1c(Cl)ccc(F)c1Cl` [Example 266, (2R)-1-[4-{6-Amino-7-[(1R)-1-(2,6-dichloro-3-fluorophenyl)ethoxy]furo[3,2-c]pyridin-3-yl}-3,6-dihydropyridin-1(2H)-yl]-2-hydroxy-2-phenylethanone], the IC50 on MET (human) (setting [1]) fell in the range of 500 to 5000 nM; at RON (human) (setting [2]) it was 0.5 to 5 µM.
As for `CC(C)[C@H](O)C(=O)N1CC=C(c2coc3c(O[C@H](C)c4c(Cl)ccc(F)c4Cl)c(N)ncc23)CC1` [Example 267, (2S)-1-[4-{6-Amino-7-[(1R)-1-(2,6-dichloro-3-fluorophenyl)ethoxy]furo[3,2-c]pyridin-3-yl}-3,6-dihydropyridin-1(2H)-yl]-2-hydroxy-3-methylbutan-1-one], the concentration for half-maximal inhibition (IC50) was 500 to 5000 nM on MET (human) (setting [1]) and less than 0.5 µM at RON (human) (setting [2]).
The corresponding values for `CC(C)[C@@H](O)C(=O)N1CC=C(c2coc3c(O[C@H](C)c4c(Cl)ccc(F)c4Cl)c(N)ncc23)CC1` [Example 268, (2R)-1-[4-{6-Amino-7-[(1R)-1-(2,6-dichloro-3-fluorophenyl)ethoxy]furo[3,2-c]pyridin-3-yl}-3,6-dihydropyridin-1(2H)-yl]-2-hydroxy-3-methylbutan-1-one] are 500 to 5000 nM and 0.5 to 5 µM.
With `C[C@@H](Oc1c(N)ncc2c(C3=CCN(C(=O)[C@H](O)C(F)(F)F)CC3)coc12)c1c(Cl)ccc(F)c1Cl` [Example 269, (2S)-1-[4-{6-Amino-7-[(1R)-1-(2,6-dichloro-3-fluorophenyl)ethoxy]furo[3,2-c]pyridin-3-yl}-3,6-dihydropyridin-1(2H)-yl]-3,3,3-trifluoro-2-hydroxypropan-1-one], the half-inhibitory concentration (IC50) at MET (human) (setting [1]) was 500 to 5000 nM; at RON (human) (setting [2]), 0.5 to 5 µM.
The matching figures for `C[C@@H](Oc1c(N)ncc2c(C3=CCN(C(=O)C(O)C(F)(F)F)CC3)coc12)c1c(Cl)ccc(F)c1Cl` (stereo partly drawn) [Example 270, 1-[4-{6-Amino-7-[(1R)-1-(2,6-dichloro-3-fluorophenyl)ethoxy]furo[3,2-c]pyridin-3-yl}-3,6-dihydropyridin-1(2H)-yl]-3,3,3-trifluoro-2-hydroxypropan-1-one]: less than 500 nM and 0.5 to 5 µM.
With `C[C@@H](Oc1c(N)ncc2c(-c3cnn(C4CCN(C(N)=O)CC4)c3)coc12)c1c(Cl)ccc(F)c1Cl` [Example 272, 4-(4-{6-Amino-7-[(1R)-1-(2,6-dichloro-3-fluorophenyl)ethoxy]furo[3,2-c]pyridin-3-yl}-1H-pyrazol-1-yl)piperidine-1-carboxamide], the concentration for half-maximal inhibition (IC50) at MET (human) (setting [1]) is 500 to 5000 nM; on RON (human) (setting [2]), 0.5 to 5 µM.
Regarding `CCNC(=O)N1CCC(n2cc(-c3coc4c(O[C@H](C)c5c(Cl)ccc(F)c5Cl)c(N)ncc34)cn2)CC1` [Example 273, 4-(4-{6-Amino-7-[(1R)-1-(2,6-dichloro-3-fluorophenyl)ethoxy]furo[3,2-c]pyridin-3-yl}-1H-pyrazol-1-yl)-N-ethylpiperidine-1-carboxamide], the values for the IC50 at MET (human) (setting [1]) and on RON (human) (setting [2]) were 500 to 5000 nM and 0.5 to 5 µM, respectively.
For `COC(=O)N1CCC(n2cc(-c3coc4c(O[C@H](C)c5c(Cl)ccc(F)c5Cl)c(N)ncc34)cn2)CC1` [Example 274, Methyl 4-(4-{6-Amino-7-[(1R)-1-(2,6-dichloro-3-fluorophenyl)ethoxy]furo[3,2-c]pyridin-3-yl}-1H-pyrazol-1-yl)piperidine-1-carboxylate], the IC50 at MET (human) (setting [1]) was 500 to 5000 nM; on RON (human) (setting [2]), 0.5 to 5 µM.
In the case of `C[C@@H](Oc1c(N)ncc2c(-c3cnn(C4CCN(S(C)(=O)=O)CC4)c3)coc12)c1c(Cl)ccc(F)c1Cl` [Example 275, 7-[(1R)-1-(2,6-Dichloro-3-fluorophenyl)ethoxy]-3-{1-[1-(methyl-sulfonyl)piperidin-4-yl]-1H-pyrazol-4-yl}furo[3,2-c]pyridin-6-amine], the IC50 fell in the range of 500 to 5000 nM at MET (human) (setting [1]) and 0.5 to 5 µM at RON (human) (setting [2]).
`C[C@@H](Oc1c(N)ncc2c(-c3cnn(C4CCN(C=O)CC4)c3)coc12)c1c(Cl)ccc(F)c1Cl` [Example 277, 4-(4-{6-Amino-7-[(1R)-1-(2,6-dichloro-3-fluorophenyl)ethoxy]furo[3,2-c]pyridin-3-yl}-1H-pyrazol-1-yl)piperidine-1-carbaldehyde]: the IC50 lay in the range of 500 to 5000 nM on MET (human) (setting [1]) and 0.5 to 5 µM at RON (human) (setting [2]).
Take `CCN1CCC(n2cc(-c3coc4c(O[C@H](C)c5c(Cl)ccc(F)c5Cl)c(N)ncc34)cn2)CC1` [Example 278, 7-[(1R)-1-(2,6-Dichloro-3-fluorophenyl)ethoxy]-3-[1-(1-ethylpiperidin-4-yl)-1H-pyrazol-4-yl]furo[3,2-c]pyridin-6-amine]: the 50% inhibitory concentration (IC50) is less than 500 nM on MET (human) (setting [1]) and 0.5 to 5 µM on RON (human) (setting [2]).
In the case of `C[C@@H](Oc1c(N)ncc2c(-c3cncc(C(=O)NC(C)(C)C)c3)coc12)c1c(Cl)ccc(F)c1Cl` [Example 280, 5-{6-Amino-7-[(R)-1-(2,6-dichloro-3-fluorophenyl)ethoxy]furo[3,2-c]pyridin-3-yl}-N-tert-butylnicotinamide], the figures for the half-inhibitory concentration (IC50) at MET (human) (setting [1]) and on RON (human) (setting [2]) were 500 to 5000 nM and 5 to 20 µM, respectively.
The corresponding values for `CC(=O)N1CCN(c2ccc(-c3coc4c(O[C@H](C)c5c(Cl)ccc(F)c5Cl)c(N)ncc34)cn2)CC1` [Example 281, 1-[4-(5-{6-Amino-7-[(R)-1-(2,6-dichloro-3-fluorophenyl)ethoxy]furo[3,2-c]pyridin-3-yl}-pyridin-2-yl)-piperazin-1-yl]ethanone] are less than 500 nM and 0.5 to 5 µM.
Take `C[C@@H](Oc1c(N)ncc2c(-c3cncc(C(=O)N4CCOCC4)c3)coc12)c1c(Cl)ccc(F)c1Cl` [Example 282, (5-{6-Amino-7-[(R)-1-(2,6-dichloro-3-fluorophenyl)ethoxy]furo[3,2-c]pyridin-3-yl}pyridin-3-yl)morpholin-4-ylmethanone]: the values for the IC50 at MET (human) (setting [1]) and at RON (human) (setting [2]) were 500 to 5000 nM and 5 to 20 µM, respectively.
As to `C[C@@H](Oc1c(N)ncc2c(-c3cnc(N4CCOCC4)nc3)coc12)c1c(Cl)ccc(F)c1Cl` [Example 283, 7-[(R)-1-(2,6-Dichloro-3-fluorophenyl)ethoxy]-3-(2-morpholin-4-ylpyrimidin-5-yl)furo[3,2-c]pyridin-6-ylamine], the half-inhibitory concentration (IC50) on MET (human) (setting [1]) was in the range of 500 to 5000 nM; on RON (human) (setting [2]), 0.5 to 5 µM.
For the compound `C[C@@H](Oc1c(N)ncc2c(-c3ccc(C(=O)N4CCC(=O)CC4)cc3)coc12)c1c(Cl)ccc(F)c1Cl` [Example 284, 1-(4-{6-Amino-7-[(R)-1-(2,6-dichloro-3-fluorophenyl)-ethoxy]furo[3,2-c]pyridin-3-yl}benzoyl)piperidin-4-one], the IC50 on MET (human) is 500 to 5000 nM; at RON (human), 0.5 to 5 µM.
Regarding `COCCNC(=O)c1ccc(-c2coc3c(O[C@H](C)c4c(Cl)ccc(F)c4Cl)c(N)ncc23)cc1` [Example 285, 4-{6-Amino-7-[(R)-1-(2,6-dichloro-3-fluorophenyl)ethoxy]furo[3,2-c]pyridin-3-yl}-N-(2-methoxyethyl)benzamide], the values for the IC50 on MET (human) (setting [1]) and on RON (human) (setting [2]) were 500 to 5000 nM and 0.5 to 5 µM, respectively.
With `COCCCNC(=O)c1ccc(-c2coc3c(O[C@H](C)c4c(Cl)ccc(F)c4Cl)c(N)ncc23)cc1` [Example 286, 4-{6-Amino-7-[(R)-1-(2,6-dichloro-3-fluorophenyl)ethoxy]furo[3,2-c]pyridin-3-yl}-N-(3-methoxypropyl)-benzamide], the IC50 is 500 to 5000 nM at MET (human) (setting [1]) and 0.5 to 5 µM at RON (human) (setting [2]).
Take `C[C@@H](Oc1c(N)ncc2c(-c3ccc(C(=O)NCCO)cc3)coc12)c1c(Cl)ccc(F)c1Cl` [Example 287, 4-{6-Amino-7-[(R)-1-(2,6-dichloro-3-fluorophenyl)ethoxy]furo[3,2-c]pyridin-3-yl}-N-(2-hydroxyethyl)benzamide]: the IC50 is 500 to 5000 nM on MET (human) (setting [1]) and 0.5 to 5 µM at RON (human) (setting [2]).
The matching figures for `C[C@@H](Oc1c(N)ncc2c(-c3ccc(C(=O)NCCCO)cc3)coc12)c1c(Cl)ccc(F)c1Cl` [Example 288, 4-{6-Amino-7-[(R)-1-(2,6-dichloro-3-fluorophenyl)ethoxy]furo[3,2-c]pyridin-3-yl}-N-(3-hydroxypropyl)benzamide]: 500 to 5000 nM and 0.5 to 5 µM.

A word on the IC50: it is the concentration that inhibits the measured activity by half.
